Reference: patent US20050089470A1, “Labeled peptides for lectin-like oxidized low-density lipoprotein receptor (LOX-1)” (priority 2003, published 2005)
Ends that are not written are not given here. Fl = fluorescein

Test system: human coronary artery endothelial cells (HCAE)
Experiment: Binding of fluorescein-labeled ligands to HCAE cells, imaged by laser confocal fluorescence microscopy
Assay type: cell-based
Settings: HCAE cells known to express LOX-1; about 10 μL of 1 mg/ml labeled ligand, incubated 1 hour, washed three times
Experimental: Images in the assay may be acquired using a laser confocal microscope or an Imager. For example, images of peptides bound to cells can be obtained using a laser confocal microscope as follows: HCAE cells can be grown on high quality borosilicate 8-chambered glass slides (Electron Microscopy Sciences, Fort Washington, Pa.). Then, about 10 μL of 1 mg/ml of an aqueous solution of a labeled peptide can be added to the cells and incubated for 1 hour. Subsequently, the cells preferably are washed with HBSS buffer three times. The cells then can be fixed with 4% formaldehyde solution over 10 minutes. After a final wash with buffer, the slide is imaged. Images preferably are acquired using an OLYMPUS laser scanning confocal microscope, model Fluoview 300, using Ar-ion laser (selecting 488 nm line) and a 510-nm long-pass filter. Images can be acquired using two channels: reflected light and fluorescent mode channel, or an overlay of both channels.
The experimental conditions for imaging the peptide-labeled HCAECs are described previously.
The image was obtained using a laser confocal microscope as follows: HCAE cells were laid on and grown in wells on a standard commercial 96-well plate (Becton-Dickenson, Franklin Lakes, N.J.). Then, about 10 μL of 1 mg/ml labeled antibody aqueous solution was added to the cells and incubated for 1 hour. […]

| Substance | binding / localization on HCAECs (fluorescent confocal image) |
| --- | --- |
| Fl-KGKG-QPLFTPQ (Fl-KGKGQPLFTPQ) [comparative peptide] | weaker binding affinity |
| Fl-KKGG-FQTPPQL (Fl-KKGGFQTPPQL) | localized on the cells |
